Source: patent US20250177363A1, “SUBSTITUTED IMIDAZOPYRIDINYL COMPOUNDS USEFUL AS INHIBITORS OF TLR9” (Bristol-Myers Squibb Company, priority 2022, published 2025)

Experiments:
Assay type in all cases: cell-based
[1] = target: T1, human TLR9 (Homo sapiens, UniProt Q9NR96); assay: TLR9 inhibition reporter assay (HEK-Blue, SEAP); settings: HEK-Blue cells overexpressing human TLR9, ligand ODN2006 200 nM, 22 hour incubation
T1 construct: host or cells: HEK-Blue cells
T1 sequence (Q9NR96 26-1032): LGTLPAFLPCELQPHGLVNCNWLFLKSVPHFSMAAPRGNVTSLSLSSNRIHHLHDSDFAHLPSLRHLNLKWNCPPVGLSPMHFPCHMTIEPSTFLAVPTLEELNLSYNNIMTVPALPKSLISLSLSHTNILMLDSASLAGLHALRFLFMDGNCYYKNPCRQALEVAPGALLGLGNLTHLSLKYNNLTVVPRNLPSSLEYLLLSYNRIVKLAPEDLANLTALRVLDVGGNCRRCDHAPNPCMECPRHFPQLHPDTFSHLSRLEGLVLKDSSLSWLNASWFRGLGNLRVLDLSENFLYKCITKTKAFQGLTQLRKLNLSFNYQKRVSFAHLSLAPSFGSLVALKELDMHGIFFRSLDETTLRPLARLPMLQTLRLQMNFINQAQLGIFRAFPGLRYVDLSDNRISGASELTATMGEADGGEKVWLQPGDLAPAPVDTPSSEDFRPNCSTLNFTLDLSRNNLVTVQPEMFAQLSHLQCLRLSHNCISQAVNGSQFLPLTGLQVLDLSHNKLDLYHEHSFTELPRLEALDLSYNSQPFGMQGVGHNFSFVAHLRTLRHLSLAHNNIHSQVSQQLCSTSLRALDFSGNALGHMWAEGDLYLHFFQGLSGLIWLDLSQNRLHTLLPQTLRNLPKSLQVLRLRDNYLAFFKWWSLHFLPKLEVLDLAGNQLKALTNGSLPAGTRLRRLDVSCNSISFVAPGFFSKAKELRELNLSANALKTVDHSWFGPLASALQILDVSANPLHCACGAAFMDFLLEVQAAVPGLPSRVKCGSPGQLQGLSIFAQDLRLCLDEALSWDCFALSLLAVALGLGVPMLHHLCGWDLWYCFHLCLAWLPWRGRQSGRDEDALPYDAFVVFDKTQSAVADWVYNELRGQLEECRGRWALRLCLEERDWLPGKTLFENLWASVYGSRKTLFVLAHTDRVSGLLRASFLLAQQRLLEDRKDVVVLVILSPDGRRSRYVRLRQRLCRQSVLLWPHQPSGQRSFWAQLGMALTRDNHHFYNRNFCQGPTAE
How it was run: (§1)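 HEK-Blue cells expressing human TLR7, TLR8 or TLR9 with NF-κB/AP-1-driven SEAP reporter; compounds 0.85 nM–50 μM, pre-treated 60 min. Stimulation: gardiquimod 2.5 μM (TLR7), R848 14.25 μM (TLR8), ODN2006 200 nM (TLR9); SEAP read after 22 h at 37 °C. Percent inhibition normalized between agonist+DMSO and known-inhibitor wells.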

[2] = target: T2, human TLR7 (Homo sapiens, UniProt Q9NYK1); assay: TLR7 inhibition reporter assay (HEK-Blue, SEAP); settings: HEK-Blue cells overexpressing human TLR7, ligand gardiquimod 2.5 μM, 22 hour incubation
T2 construct: host or cells: HEK-Blue cells
T2 sequence (Q9NYK1 27-1049): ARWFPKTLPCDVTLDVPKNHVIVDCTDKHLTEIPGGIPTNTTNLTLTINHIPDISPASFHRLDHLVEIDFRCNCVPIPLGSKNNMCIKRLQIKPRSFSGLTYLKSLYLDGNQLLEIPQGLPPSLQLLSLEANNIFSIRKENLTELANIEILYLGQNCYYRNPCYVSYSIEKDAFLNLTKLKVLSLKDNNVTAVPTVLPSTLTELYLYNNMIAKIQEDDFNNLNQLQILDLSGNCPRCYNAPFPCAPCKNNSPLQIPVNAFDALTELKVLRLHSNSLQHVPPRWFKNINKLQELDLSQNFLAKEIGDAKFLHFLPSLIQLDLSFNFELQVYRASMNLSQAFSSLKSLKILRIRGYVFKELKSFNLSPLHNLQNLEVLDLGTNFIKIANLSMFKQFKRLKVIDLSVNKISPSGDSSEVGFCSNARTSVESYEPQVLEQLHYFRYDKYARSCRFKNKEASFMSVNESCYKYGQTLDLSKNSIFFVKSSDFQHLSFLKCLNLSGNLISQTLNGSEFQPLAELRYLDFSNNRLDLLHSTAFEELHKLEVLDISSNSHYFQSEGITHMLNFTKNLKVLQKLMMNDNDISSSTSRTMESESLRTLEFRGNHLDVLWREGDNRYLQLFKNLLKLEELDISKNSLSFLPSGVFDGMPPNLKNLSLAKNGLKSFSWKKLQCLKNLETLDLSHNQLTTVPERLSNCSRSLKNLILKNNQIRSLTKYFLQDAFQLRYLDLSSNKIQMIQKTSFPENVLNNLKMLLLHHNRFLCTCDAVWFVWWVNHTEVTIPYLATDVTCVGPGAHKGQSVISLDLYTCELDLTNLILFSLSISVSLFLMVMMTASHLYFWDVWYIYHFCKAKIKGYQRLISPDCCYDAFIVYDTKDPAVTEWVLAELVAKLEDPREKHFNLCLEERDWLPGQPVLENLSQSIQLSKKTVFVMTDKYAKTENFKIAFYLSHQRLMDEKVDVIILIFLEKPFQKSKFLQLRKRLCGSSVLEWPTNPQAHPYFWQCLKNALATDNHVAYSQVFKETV
How it was run: as §1

[3] = target: T3, human TLR8 (Homo sapiens, UniProt Q9NR97); assay: TLR8 inhibition reporter assay (HEK-Blue, SEAP); settings: HEK-Blue cells overexpressing human TLR8, ligand R848 14.25 μM, 22 hour incubation
T3 construct: host or cells: HEK-Blue cells
T3 sequence (Q9NR97 27-1041): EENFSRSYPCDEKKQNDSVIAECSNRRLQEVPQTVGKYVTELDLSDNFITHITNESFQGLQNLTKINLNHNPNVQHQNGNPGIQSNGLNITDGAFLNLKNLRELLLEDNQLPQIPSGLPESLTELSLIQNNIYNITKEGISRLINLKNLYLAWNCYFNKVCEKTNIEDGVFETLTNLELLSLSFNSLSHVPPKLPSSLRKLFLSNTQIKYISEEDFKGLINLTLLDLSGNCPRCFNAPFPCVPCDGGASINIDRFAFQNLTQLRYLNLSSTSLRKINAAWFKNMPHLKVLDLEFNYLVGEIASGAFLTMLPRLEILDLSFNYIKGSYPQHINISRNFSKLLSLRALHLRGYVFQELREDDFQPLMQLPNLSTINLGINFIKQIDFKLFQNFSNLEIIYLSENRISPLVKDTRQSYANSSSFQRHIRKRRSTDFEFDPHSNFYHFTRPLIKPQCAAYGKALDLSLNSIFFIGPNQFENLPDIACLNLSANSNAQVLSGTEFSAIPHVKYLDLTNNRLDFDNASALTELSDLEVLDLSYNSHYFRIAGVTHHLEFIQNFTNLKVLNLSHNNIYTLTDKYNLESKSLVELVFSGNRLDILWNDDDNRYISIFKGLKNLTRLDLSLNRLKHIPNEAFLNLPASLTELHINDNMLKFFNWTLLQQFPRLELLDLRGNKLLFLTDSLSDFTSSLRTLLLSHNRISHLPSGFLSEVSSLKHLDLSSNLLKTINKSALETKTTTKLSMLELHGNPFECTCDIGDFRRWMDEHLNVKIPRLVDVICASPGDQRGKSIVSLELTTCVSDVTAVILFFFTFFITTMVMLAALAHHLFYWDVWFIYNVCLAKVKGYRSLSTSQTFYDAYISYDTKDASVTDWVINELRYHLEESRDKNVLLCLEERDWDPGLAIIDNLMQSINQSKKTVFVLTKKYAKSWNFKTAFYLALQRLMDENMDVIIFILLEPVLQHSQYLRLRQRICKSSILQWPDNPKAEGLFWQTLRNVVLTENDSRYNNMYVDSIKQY
How it was run: as §1

IC50 [1] [nM] | IC50 [2] [nM] | IC50 [3] [nM] | SMILES
84 | 17000 | > 50000 | COc1cc(-c2nc3c(C)cc(C4CCN([C@H]5C[C@@H]6CN(C7CCC7)C[C@@H]6C5)CC4)nc3n2C)cn2ncnc12 [Example 42, 5-(1-((3aR,5s,6aS)-2-cyclobutyloctahydrocyclopenta[c]pyrrol-5-yl)piperidin-4-yl)-2-(8-methoxy-[1,2,4]triazolo[1,5-a]pyridin-6-yl)-3,7-dimethyl-3H-imidazo[4,5-b]pyridine]
52 | 250 | > 50000 | COc1cc(-c2nc3c(C)cc(C4CCN([C@H]5C[C@@H]6CN(CC7CC7)C[C@@H]6C5)CC4)nc3n2C)cn2ncnc12 [Example 43, 5-(1-((3aR,5s,6aS)-2-(cyclopropylmethyl)octahydrocyclopenta[c]pyrrol-5-yl)piperidin-4-yl)-2-(8-methoxy-[1,2,4]triazolo[1,5-a]pyridin-6-yl)-3,7-dimethyl-3H-imidazo[4,5-b]pyridine]
180 | 4500 | > 50000 | COc1cc(-c2nc3c(C)cc(C4CCN([C@H]5C[C@@H]6CN(C7CCOCC7)C[C@@H]6C5)CC4)nc3n2C)cn2ncnc12 [Example 44, 2-(8-methoxy-[1,2,4]triazolo[1,5-a]pyridin-6-yl)-3,7-dimethyl-5-(1-((3aR,5s,6aS)-2-(tetrahydro-2H-pyran-4-yl)octahydrocyclopenta[c]pyrrol-5-yl)piperidin-4-yl)-3H-imidazo[4,5-b]pyridine]
27 | 360 | > 50000 | COCCN1C[C@H]2C[C@H](N3CCC(c4cc(C)c5nc(-c6cc(OC)c7ncnn7c6)n(C)c5n4)CC3)C[C@H]2C1 [Example 46, 2-(8-methoxy-[1,2,4]triazolo[1,5-a]pyridin-6-yl)-5-(1-((3aR,5s,6aS)-2-(2-methoxyethyl)octahydrocyclopenta[c]pyrrol-5-yl)piperidin-4-yl)-3,7-dimethyl-3H-imidazo[4,5-b]pyridine]
290 | 15000 | > 50000 | Cc1cc(-c2ccc(CN3CCC(N4CCOCC4)CC3)cc2)nc2c1nc(-c1ccc(S(C)(=O)=O)cc1)n2C1CC1 [Example 47, 4-(1-(4-(3-cyclopropyl-7-methyl-2-(4-(methylsulfonyl)phenyl)-3H-imidazo[4,5-b]pyridin-5-yl)benzyl)piperidin-4-yl)morpholine]
280 | 1500 | 18000 | COc1ccc(-c2nc3ncc(-c4ccc(N5CCN(C(C)C)CC5)cc4)cc3n2C)cc1OC [Example 48, 2-(3,4-dimethoxyphenyl)-6-(4-(4-isopropylpiperazin-1-yl)phenyl)-1-methyl-1H-imidazo[4,5-b]pyridine]
350 | 4200 | 2700 | CC(C)N1CCN(c2ccc(-c3cnc4nc(-c5ccc(S(C)(=O)=O)cc5)n(C)c4c3)cc2)CC1 [Example 49, 6-(4-(4-isopropylpiperazin-1-yl)phenyl)-1-methyl-2-(4-(methylsulfonyl)phenyl)-1H-imidazo[4,5-b]pyridine]
340 | 2700 | 4200 | CC(C)N1CCN(c2ccc(-c3cnc4nc(-c5ccc(S(C)(=O)=O)cc5)n(C5CC5)c4c3)cc2)CC1 [Example 51, 1-cyclopropyl-6-(4-(4-isopropylpiperazin-1-yl)phenyl)-2-(4-(methylsulfonyl)phenyl)-1H-imidazo[4,5-b]pyridine]
640 | 1200 | > 50000 | COc1ccc(-c2nc3ccc(-c4ccc(N5CCN(C(C)C)CC5)cc4)nc3n2C)cc1OC [Example 52, 2-(3,4-dimethoxyphenyl)-5-(4-(4-isopropylpiperazin-1-yl)phenyl)-3-methyl-3H-imidazo[4,5-b]pyridine]
930 | > 50000 | > 50000 | CC(C)N1CCN(c2ccc(-c3ccc4nc(-c5ccc(S(C)(=O)=O)cc5)n(C)c4n3)cc2)CC1 [Example 53, 5-(4-(4-isopropylpiperazin-1-yl)phenyl)-3-methyl-2-(4-(methylsulfonyl)phenyl)-3H-imidazo[4,5-b]pyridine]
760 | > 50000 | > 50000 | CC(C)N1CCN(c2ccc(-c3ccc4nc(-c5ccc(S(C)(=O)=O)cc5)n(C5CC5)c4n3)cc2)CC1 [Example 54, 3-cyclopropyl-5-(4-(4-isopropylpiperazin-1-yl)phenyl)-2-(4-(methylsulfonyl)phenyl)-3H-imidazo[4,5-b]pyridine]
1400 | 40000 | > 50000 | COc1ccc(-c2nc3ccc(-c4ccc(N5CCN(C(C)C)CC5)cc4)nc3n2C2CC2)cc1OC [Example 55, 3-cyclopropyl-2-(3,4-dimethoxyphenyl)-5-(4-(4-isopropylpiperazin-1-yl)phenyl)-3H-imidazo[4,5-b]pyridine]
